Measurements reported in ChEMBL document CHEMBL1148029, “Synthesis and radiopharmacological characterization of 2beta-carbo-2'-[18F]fluoroethoxy-3beta-(4-bromo-phenyl)tropane ([18F]MCL-322) as a PET radiotracer for imaging the dopamine transporter (DAT)” (Bioorg Med Chem, 2007).

Legend:
Muscle tissue [1] = experiment: Biodistribution in Wistar rat muscle at 300 uCi, iv after 60 mins; assay type: ADME, organism-based; conditions: in vivo, 1 h
Muscle tissue [2] = experiment: Biodistribution in Wistar rat muscle at 300 uCi, iv after 240 mins; assay type: ADME, organism-based; conditions: in vivo, 4 h
Heart [3] = experiment: Biodistribution in Wistar rat heart at 300 uCi, iv after 60 mins; assay type: ADME, organism-based; conditions: in vivo, 1 h
Heart [4] = experiment: Biodistribution in Wistar rat heart at 300 uCi, iv after 120 mins; assay type: ADME, organism-based; conditions: in vivo, 2 h
Cerebellum [5] = experiment: Biodistribution in Wistar rat cerebellum at 300 uCi, iv after 60 mins in presence of GBR-12909; assay type: ADME, organism-based; conditions: in vivo, 1 h
Cerebellum [6] = experiment: Biodistribution in Wistar rat cerebellum at 300 uCi, iv after 60 mins in presence of citalopram; assay type: ADME, organism-based; conditions: in vivo, 1 h
Hippocampus [7] = experiment: Biodistribution in Wistar rat hippocampus at 300 uCi, iv after 60 mins in presence of nisoxetine; assay type: ADME, organism-based; conditions: in vivo, 1 h
Liver [8] = experiment: Biodistribution in Wistar rat liver at 300 uCi, iv after 5 mins; assay type: ADME, organism-based; conditions: in vivo
Blood [9] = experiment: Biodistribution in Wistar rat blood at 300 uCi, iv after 120 mins; assay type: ADME, organism-based; conditions: in vivo, 2 h
Blood [10] = experiment: Biodistribution in Wistar rat blood at 300 uCi, iv after 240 mins; assay type: ADME, organism-based; conditions: in vivo, 4 h
[11] = Biodistribution in Wistar rat brown fat at 300 uCi, iv after 5 mins; assay type: ADME, organism-based, Brown adipose tissue; conditions: in vivo
[12] = Biodistribution in Wistar rat brown fat at 300 uCi, iv after 20 mins; assay type: ADME, organism-based, Brown adipose tissue; conditions: in vivo
[13] = Biodistribution in Wistar rat hair and skin at 300 uCi, iv after 20 mins; assay type: ADME, organism-based; conditions: in vivo
Pancreas [14] = experiment: Biodistribution in Wistar rat pancreas at 300 uCi, iv after 5 mins; assay type: ADME, organism-based; conditions: in vivo
Pancreas [15] = experiment: Biodistribution in Wistar rat pancreas at 300 uCi, iv after 20 mins; assay type: ADME, organism-based; conditions: in vivo
Spleen [16] = experiment: Biodistribution in Wistar rat spleen at 300 uCi, iv after 20 mins; assay type: ADME, organism-based; conditions: in vivo
Spleen [17] = experiment: Biodistribution in Wistar rat spleen at 300 uCi, iv after 60 mins; assay type: ADME, organism-based; conditions: in vivo, 1 h
Spleen [18] = experiment: Biodistribution in Wistar rat spleen at 300 uCi, iv after 240 mins; assay type: ADME, organism-based; conditions: in vivo, 4 h
Adrenal [19] = experiment: Biodistribution in Wistar rat adrenal gland at 300 uCi, iv after 5 mins; assay type: ADME, organism-based, Adrenal tissue; conditions: in vivo
Adrenal [20] = experiment: Biodistribution in Wistar rat adrenal gland at 300 uCi, iv after 20 mins; assay type: ADME, organism-based, Adrenal tissue; conditions: in vivo
Adrenal [21] = experiment: Biodistribution in Wistar rat adrenal gland at 300 uCi, iv after 60 mins; assay type: ADME, organism-based, Adrenal tissue; conditions: in vivo, 1 h
Adrenal [22] = experiment: Biodistribution in Wistar rat adrenal gland at 300 uCi, iv after 120 mins; assay type: ADME, organism-based, Adrenal tissue; conditions: in vivo, 2 h
Adrenal [23] = experiment: Biodistribution in Wistar rat adrenal gland at 300 uCi, iv after 240 mins; assay type: ADME, organism-based, Adrenal tissue; conditions: in vivo, 4 h
Kidney [24] = experiment: Biodistribution in Wistar rat kidney at 300 uCi, iv after 20 mins; assay type: ADME, organism-based; conditions: in vivo
Kidney [25] = experiment: Biodistribution in Wistar rat kidney at 300 uCi, iv after 60 mins; assay type: ADME, organism-based; conditions: in vivo, 1 h
Kidney [26] = experiment: Biodistribution in Wistar rat kidney at 300 uCi, iv after 120 mins; assay type: ADME, organism-based; conditions: in vivo, 2 h
[27] = Biodistribution in Wistar rat fat at 300 uCi, iv after 5 mins; assay type: ADME, organism-based, Adipose tissue; conditions: in vivo
[28] = Biodistribution in Wistar rat fat at 300 uCi, iv after 60 mins; assay type: ADME, organism-based, Adipose tissue; conditions: in vivo, 1 h
[29] = Biodistribution in Wistar rat fat at 300 uCi, iv after 240 mins; assay type: ADME, organism-based, Adipose tissue; conditions: in vivo, 4 h
Lung [30] = experiment: Biodistribution in Wistar rat lung at 300 uCi, iv after 20 mins; assay type: ADME, organism-based; conditions: in vivo
Lung [31] = experiment: Biodistribution in Wistar rat lung at 300 uCi, iv after 120 mins; assay type: ADME, organism-based; conditions: in vivo, 2 h
Thymus [32] = experiment: Biodistribution in Wistar rat thymus at 300 uCi, iv after 120 mins; assay type: ADME, organism-based; conditions: in vivo, 2 h
Thymus [33] = experiment: Biodistribution in Wistar rat thymus at 300 uCi, iv after 240 mins; assay type: ADME, organism-based; conditions: in vivo, 4 h
Harderian gland [34] = experiment: Biodistribution in Wistar rat harderian glands at 300 uCi, iv after 5 mins; assay type: ADME, organism-based; conditions: in vivo
Harderian gland [35] = experiment: Biodistribution in Wistar rat harderian glands at 300 uCi, iv after 20 mins; assay type: ADME, organism-based; conditions: in vivo
Harderian gland [36] = experiment: Biodistribution in Wistar rat harderian glands at 300 uCi, iv after 120 mins; assay type: ADME, organism-based; conditions: in vivo, 2 h
Liver [37] = experiment: Biodistribution in Wistar rat liver at 300 uCi, iv after 20 mins; assay type: ADME, organism-based; conditions: in vivo
Liver [38] = experiment: Biodistribution in Wistar rat liver at 300 uCi, iv after 60 mins; assay type: ADME, organism-based; conditions: in vivo, 1 h
Liver [39] = experiment: Biodistribution in Wistar rat liver at 300 uCi, iv after 240 mins; assay type: ADME, organism-based; conditions: in vivo, 4 h
Femur = experiment: Biodistribution in Wistar rat femur at 300 uCi, iv after 20 mins; assay type: ADME, organism-based; conditions: in vivo
[40] = Biodistribution in Wistar rat rest of brain at 300 uCi, iv after 5 mins; assay type: ADME, organism-based; conditions: in vivo
Striatum [41] = experiment: Biodistribution in Wistar rat striatum at 300 uCi, iv after 20 mins; assay type: ADME, organism-based; conditions: in vivo
Striatum [42] = experiment: Biodistribution in Wistar rat striatum at 300 uCi, iv after 60 mins; assay type: ADME, organism-based; conditions: in vivo, 1 h
Striatum [43] = experiment: Biodistribution in Wistar rat striatum at 300 uCi, iv after 240 mins; assay type: ADME, organism-based; conditions: in vivo, 4 h
Cerebellum [44] = experiment: Biodistribution in Wistar rat cerebellum at 300 uCi, iv after 5 mins; assay type: ADME, organism-based; conditions: in vivo
Cerebellum [45] = experiment: Biodistribution in Wistar rat cerebellum at 300 uCi, iv after 20 mins; assay type: ADME, organism-based; conditions: in vivo
Cerebellum [46] = experiment: Biodistribution in Wistar rat cerebellum at 300 uCi, iv after 60 mins; assay type: ADME, organism-based; conditions: in vivo, 1 h
Hippocampus [47] = experiment: Biodistribution in Wistar rat hippocampus at 300 uCi, iv after 20 mins; assay type: ADME, organism-based; conditions: in vivo
Hippocampus [48] = experiment: Biodistribution in Wistar rat hippocampus at 300 uCi, iv after 60 mins; assay type: ADME, organism-based; conditions: in vivo, 1 h
Hippocampus [49] = experiment: Biodistribution in Wistar rat hippocampus at 300 uCi, iv after 120 mins; assay type: ADME, organism-based; conditions: in vivo, 2 h
[50] = Biodistribution in Wistar rat rest of brain at 300 uCi, iv after 60 mins; assay type: ADME, organism-based; conditions: in vivo, 1 h
[51] = Biodistribution in Wistar rat rest of brain at 300 uCi, iv after 120 mins; assay type: ADME, organism-based; conditions: in vivo, 2 h
[52] = Biodistribution in Wistar rat rest of brain at 300 uCi, iv after 240 mins; assay type: ADME, organism-based; conditions: in vivo, 4 h
Cortex [53] = experiment: Biodistribution in Wistar rat cortex at 300 uCi, iv after 5 mins; assay type: ADME, organism-based; conditions: in vivo
Cortex [54] = experiment: Biodistribution in Wistar rat cortex at 300 uCi, iv after 60 mins in presence of citalopram; assay type: ADME, organism-based; conditions: in vivo, 1 h
Brain = experiment: Biodistribution in Wistar rat rest of brain at 300 uCi, iv after 60 mins in presence of nisoxetine; assay type: ADME, organism-based; conditions: in vivo, 1 h
Testes [55] = experiment: Biodistribution in Wistar rat testes at 300 uCi, iv after 20 mins; assay type: ADME, organism-based, Testis; conditions: in vivo
Testes [56] = experiment: Biodistribution in Wistar rat testes at 300 uCi, iv after 60 mins; assay type: ADME, organism-based, Testis; conditions: in vivo, 1 h
Plasma [57] = experiment: Metabolic stability in Wistar rat plasma assessed as polar metabolite level at 1 mCi, iv after 1.5 mins; assay type: ADME, organism-based; conditions: in vivo, 0.025 h
Plasma [58] = experiment: Metabolic stability in Wistar rat plasma assessed as polar metabolite level at 1 mCi, iv after 5 mins; assay type: ADME, organism-based; conditions: in vivo
Plasma [59] = experiment: Metabolic stability in Wistar rat plasma assessed as polar metabolite level at 1 mCi, iv after 10 mins; assay type: ADME, organism-based; conditions: in vivo
[60] = Metabolic stability in Wistar rat striatum at 1 mCi, iv after 60 mins; assay type: ADME, organism-based; conditions: read-out: Stability

CN1C2CCC1C(C(=O)OCC[18F])C(c1ccc(Br)cc1)C2 (configuration not stated)
Drug uptake (Muscle tissue [1]): 0.16 % ID/g
Drug uptake (Muscle tissue [2]): 0.04 % ID/g
Drug uptake (Heart [3]): 0.21 % ID/g
Drug uptake (Heart [4]): 0.12 % ID/g
Drug uptake (Cerebellum [5]): 0.62 % ID/g
Drug uptake (Cerebellum [6]): 0.71 % ID/g
Drug uptake (Hippocampus [7]): 0.91 % ID/g
Drug uptake (Liver [8]): 3.2 % ID/g
Drug uptake (Blood [9]): 0.03 % ID/g
Drug uptake (Blood [10]): 0.03 % ID/g
Drug uptake [11]: 1.46 % ID/g
Drug uptake [12]: 0.78 % ID/g
Drug uptake [13]: 0.47 % ID/g
Drug uptake (Pancreas [14]): 2.09 % ID/g
Drug uptake (Pancreas [15]): 1.23 % ID/g
Drug uptake (Spleen [16]): 1.41 % ID/g
Drug uptake (Spleen [17]): 0.58 % ID/g
Drug uptake (Spleen [18]): 0.12 % ID/g
Drug uptake (Adrenal [19]): 3.57 % ID/g
Drug uptake (Adrenal [20]): 1.21 % ID/g
Drug uptake (Adrenal [21]): 0.58 % ID/g
Drug uptake (Adrenal [22]): 0.35 % ID/g
Drug uptake (Adrenal [23]): 0.17 % ID/g
Drug uptake (Kidney [24]): 3.51 % ID/g
Drug uptake (Kidney [25]): 3.1 % ID/g
Drug uptake (Kidney [26]): 1.84 % ID/g
Drug uptake [27]: 4.64 % ID/g
Drug uptake [28]: 0.27 % ID/g
Drug uptake [29]: 0.06 % ID/g
Drug uptake (Lung [30]): 2.58 % ID/g
Drug uptake (Lung [31]): 0.54 % ID/g
Drug uptake (Thymus [32]): 0.21 % ID/g
Drug uptake (Thymus [33]): 0.08 % ID/g
Drug uptake (Harderian gland [34]): 1.46 % ID/g
Drug uptake (Harderian gland [35]): 2.04 % ID/g
Drug uptake (Harderian gland [36]): 1.82 % ID/g
Drug uptake (Liver [37]): 6.8 % ID/g
Drug uptake (Liver [38]): 11.8 % ID/g
Drug uptake (Liver [39]): 15.2 % ID/g
Drug uptake (Femur): 0.42 % ID/g
Drug uptake [40]: 2.53 % ID/g
Drug uptake (Striatum [41]): 3.93 % ID/g
Drug uptake (Striatum [42]): 3.71 % ID/g
Drug uptake (Striatum [43]): 2.45 % ID/g
Drug uptake (Cerebellum [44]): 1.77 % ID/g
Drug uptake (Cerebellum [45]): 1.37 % ID/g
Drug uptake (Cerebellum [46]): 0.56 % ID/g
Drug uptake (Hippocampus [47]): 1.99 % ID/g
Drug uptake (Hippocampus [48]): 1.12 % ID/g
Drug uptake (Hippocampus [49]): 0.42 % ID/g
Drug uptake [50]: 1.1 % ID/g
Drug uptake [51]: 0.59 % ID/g
Drug uptake [52]: 0.27 % ID/g
Drug uptake (Cortex [53]): 3.19 % ID/g
Drug uptake (Cortex [54]): 0.97 % ID/g
Drug uptake (Brain): 1.23 % ID/g
Drug uptake (Testes [55]): 0.45 % ID/g
Drug uptake (Testes [56]): 0.5 % ID/g
Stability (Plasma [57]): 21%
Stability (Plasma [58]): 42%
Stability (Plasma [59]): 61%
remaining at 1 h [60]: > 90%
